Laboratory results: BindingDB's records for doi:10.1021/ja057257n (University of Pennsylvania, 2006)

How the values were obtained:
Carbonic anhydrase 1 = Carbonic anhydrase 1 (Homo sapiens, UniProt P00915); test: Competitive Displacement Binding Assay; details: pH 7; 25 °C
Method: (§1) The dissociation constant of the hCA and inhibitor complex was determined by competitive displacement of a fixed concentration of dansylamide by increasing concentrations of the inhibitor using Perkin-Elmer lambda 50-B spectrofluorometer. […] The dissociation constant of the enzyme-inhibitor complex was determined by monitoring the decrease in the fluorescence of the enzyme-dansylamide complex as a function of the increasing concentration of the inhibitor.

Carbonic anhydrase 2 = Carbonic anhydrase 2 (Homo sapiens, UniProt P00918); test: Competitive Displacement Binding Assay; details: pH 7; 25 °C
Method: as §1

Sequence of Carbonic anhydrase 1 (P00915 whole entry): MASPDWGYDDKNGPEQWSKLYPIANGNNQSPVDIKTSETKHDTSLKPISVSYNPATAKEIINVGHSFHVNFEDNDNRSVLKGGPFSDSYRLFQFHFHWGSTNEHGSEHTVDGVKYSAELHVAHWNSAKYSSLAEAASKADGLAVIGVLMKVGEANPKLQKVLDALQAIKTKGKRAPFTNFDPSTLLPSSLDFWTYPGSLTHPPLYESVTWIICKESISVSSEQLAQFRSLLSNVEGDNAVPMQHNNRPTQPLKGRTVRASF

NS(=O)(=O)c1ccc(CCNC(=O)c2ccc(CN(CC(=O)O)CC(=O)O)cc2)cc1 [copper(2+) ion 2-[(carboxylatomethyl)[(4-{[2-(4-sulfamoylphenyl)ethyl]carbamoyl}phenyl)methyl]amino]acetate] was tested, and the Kd (Carbonic anhydrase 1) was 200 nM and the Kd (Carbonic anhydrase 2) was 235 nM.
